Experimental findings from patent US20060018864A1, “Cosmetic preparation containing glycerylamino acid derivative” (priority 2002, published 2006) are described below.

In data set [1] the test system is skin (forearm of panelists). Nature of the data set: Moisturizing effect on skin: skin conductance (SKICON200-EX) on forearm of panelists. In kind it is in vivo, human. To be noted: for change in vivo at 5 %: Homo sapiens, topical, 20 min, read-out: Moisturizing effect on skin. Here is the method: Evaluation was carried out in a manner that forearm of panelists was washed and then applied with 100 μl of aqueous amino acid N-glyceryl derivative solution prepared in 5% concentration. Then, conductance value of the skin was measured by SKICON200-EX (manufactured by IBS K. K.) before the application and in 20 minutes elapsed after the application.
Moisturizing effect on skin was evaluated by the following criteria.
Moisturizing effect on skin rating criteria • ◯: Conductance changing ratio is 10% more • □: Conductance changing ratio is 3% or more and less than 10% • X: Conductance changing ratio is less than 3.

A short description of data set [2]: Moisture-absorption ability measurement employing keratin powder (ground wool). In kind it is physicochemical. To be noted: keratin powder with sample, 20° C., 79.2% relative humidity, 48 hours; absorbed water per 1 g of keratin powder. The protocol:
[Method of Moisture-Absorption Ability Measurement Carried Out by Employing Keratin Powder (Ground Wool)]
Moisture-absorption ability was evaluated by the following criteria.
Moisture-absorption ability rating criteria • ⊚: Amount of absorbed water per 1 g of keratin powder is 0.60 g or more. • ◯: Amount of absorbed water per 1 g of keratin powder is 0.50 g or more and less than 0.60 g • Δ: Amount of absorbed water per 1 g of keratin powder is 0.40 g or more and less than 0.50 g • X: Amount of absorbed water per 1 g of keratin powder is less than 0.40 g [Method of Moisturizing Effect Measurement Carried Out by Employing Keratin Powder (Ground Wool)]

A short description of data set [3]: Moisturizing effect measurement employing keratin powder (ground wool). To be noted: (B/A)×100: water retained after further 6 hours at 20° C., 20.0% relative humidity, relative to water absorbed at 79.2% relative humidity for 48 hours. It is filed as physicochemical. Here is the method: For the constant-humidity bath under 20.0% of relative humidity, saturated aqueous potassium acetate solution was employed.
Moisturizing effect was evaluated by the following criteria,
Moisturizing effect rating criteria • ⊚: 60 or more • ◯: 50 or more and less than 60 • Δ: 40 or more and less than 50 • X: Less than 40

Data set [4] in a line: Stability evaluation: odor of sample solution after storage at 50° C. for 1 month. The following applies: for Stability: 5% by weight sample solution, sealed, 50° C., 1 month, odor, average of 5 panelists (3: no degradation odor, 1: strong degradation odor).
Excerpt: [Method of Stability Evaluation]
After 1 month being elapsed, the sealing was opened, followed by odor of samples being evaluated by 5 panelists according to the following criteria.
Odor rating criteria • 3: No degradation odor • 2: Almost no degradation odor • 1: Strong degradation odor
Odor evaluation value of each sample was the average of values determined by 5 panelists; the evaluation result was represented by the following marks rated according to respective criteria. • ∘: 2.4 or more and less than 3 • □: 1.8 or more and less than 2.4 • X: Less than 1.8
Setting [5] is: 100 μl of 5% aqueous solution on washed forearm, ten panelists, conductance changing ratio before vs 20 minutes after application.

Like-named read-outs stand apart in the source and are kept apart here.

For “1 sodium N-glycerylaspartate [Glyceryl derivative of aspartic acid]”, the “Moisturizing effect on skin” value in data set [1] (setting [5]) is “⊚”.
As to `CC(O)CCO` (stereo not shown) [1,3-Butylene glycol], the Moisture-absorption ability result in data set [2] was “Δ (Amount of absorbed water per 1 g of keratin powder is 0.40 g or more and less than 0.50 g)”. Moreover, in data set [3], the Moisturizing effect entry is “Δ (40 or more and less than 50)”. Further, in data set [1] (setting [5]), the “Moisturizing effect on skin” value is “Δ”. For the same compound, the Stability result in data set [4] was “Δ”.
For the compound `C[C@H](N)C(=O)O` [Alanine], the Stability result in data set [4] is “X (Less than 1.8)”.
With `Cl.N=C(N)NCCC[C@H](N)C(=O)O` [Arginine hydrochloride], the Moisture-absorption ability entry in data set [2] was “◯ (Amount of absorbed water per 1 g of keratin powder is 0.50 g or more and less than 0.60 g)”. Besides, the Moisturizing effect entry in data set [3] was “◯ (50 or more and less than 60)”. For the same compound, the change in vivo at 5 % in data set [1] was above 10%. Besides, the Stability entry in data set [4] is on record as “◯”.
In the case of `OCC(O)CO` [Glycerin], the Moisture-absorption ability result in data set [2] was “◯ (Amount of absorbed water per 1 g of keratin powder is 0.50 g or more and less than 0.60 g)”. Besides, the Moisturizing effect result in data set [3] was “◯ (50 or more and less than 60)”. The Stability result in data set [4] is “◯”.
For `C[C@H](NCC(O)CO)C(=O)O` (stereo partly shown) [Glyceryl derivative of alanine, N-glycerylalanine], the Moisture-absorption ability entry in data set [2] was “⊚ (Amount of absorbed water per 1 g of keratin powder is 0.60 g or more)”. In data set [3], the Moisturizing effect result is “◯ (50 or more and less than 60)”. In addition, the change in vivo at 5 % in data set [1] (setting [5]) is above 10%. Besides, the Stability entry in data set [4] is “Δ”.
On to `Cl.N=C(N)NCCC[C@H](NCC(O)CO)C(=O)O` (stereo partly shown) [Glyceryl derivative of arginine, N-glycerylarginine hydrochloride], for which, in data set [2], the Moisture-absorption ability entry is “⊚ (Amount of absorbed water per 1 g of keratin powder is 0.60 g or more)”. For the same compound, in data set [3], the Moisturizing effect result is given as “⊚ (60 or more)”. Also, the “Moisturizing effect on skin” value in data set [1] (setting [5]) is “⊚”. The Stability entry in data set [4] was “⊚”.
In the case of `O=C([O-])CC[C@H](NCC(O)CO)C(=O)[O-].[Na+].[Na+]` (stereo partly shown) [Glyceryl derivative of glutamic acid, sodium N-glycerylglutamate], in data set [2], the Moisture-absorption ability result is “⊚ (Amount of absorbed water per 1 g of keratin powder is 0.60 g or more)”. Further, the Moisturizing effect entry in data set [3] was “⊚ (60 or more)”. Moreover, the “Moisturizing effect on skin” value in data set [1] (setting [5]) is recorded as “⊚”. Also, in data set [4], the Stability entry is on record as “◯”.
For `O=C(O)CNCC(O)CO` (stereo not shown) [Glyceryl derivative of glycine, N-glycerylglycine], in data set [2], the Moisture-absorption ability entry was “⊚ (Amount of absorbed water per 1 g of keratin powder is 0.60 g or more)”. Also, in data set [3], the Moisturizing effect entry is on record as “⊚ (60 or more)”. Also, the change in vivo at 5 % in data set [1] (setting [5]) is above 10%. Moreover, the Stability entry in data set [4] was “Δ”.
As to `Cl.O=C(O)[C@H](Cc1c[nH]cn1)NCC(O)CO` (stereo partly shown) [Glyceryl derivative of histidine, M-glycerylhistidine hydrochloride], the Moisture-absorption ability entry in data set [2] was “⊚ (Amount of absorbed water per 1 g of keratin powder is 0.60 g or more)”. The Moisturizing effect result in data set [3] was “⊚ (60 or more)”. Further, the “Moisturizing effect on skin” value in data set [1] (setting [5]) is listed as “⊚”.
On to `CC(C)C[C@H](NCC(O)CO)C(=O)O` (stereo partly shown) [Glyceryl derivative of leucine, N-glycervylleucine], for which the Moisture-absorption ability entry in data set [2] is reported as “⊚ (Amount of absorbed water per 1 g of keratin powder is 0.60 g or more)”. For the same compound, the Moisturizing effect result in data set [3] is “◯ (50 or more and less than 60)”. Further, the “Moisturizing effect on skin” value in data set [1] (setting [5]) was “◯ (Conductance changing ratio is 10% more)”.
Turning to `Cl.NCCCC[C@H](NCC(O)CO)C(=O)O` (stereo partly shown) [Glyceryl derivative of lysine, N-glyceryllysine hydrochloride], in data set [2], the Moisture-absorption ability entry is reported as “⊚ (Amount of absorbed water per 1 g of keratin powder is 0.60 g or more)”. Further, in data set [3], the Moisturizing effect result was “⊚ (60 or more)”. In addition, the “Moisturizing effect on skin” value in data set [1] (setting [5]) is “⊚”. In addition, the Stability result in data set [4] was “Δ”.
Take `O=C(O)[C@H](Cc1ccccc1)NCC(O)CO` (stereo partly shown) [Glyceryl derivative of phenylalanine, N-glycerylphenylalanine]: the Moisture-absorption ability result in data set [2] was “⊚ (Amount of absorbed water per 1 g of keratin powder is 0.60 g or more)”. In addition, in data set [3], the Moisturizing effect result was “◯ (50 or more and less than 60)”. In data set [1] (setting [5]), the change in vivo at 5 % was above 10%. Besides, in data set [4], the Stability result is “◯”.
As for `O=C(O)[C@@H]1CCCN1CC(O)CO` (stereo partly shown) [Glyceryl derivative of proline, N-glycerylproline], the Moisture-absorption ability result in data set [2] is on record as “⊚ (Amount of absorbed water per 1 g of keratin powder is 0.60 g or more)”. Moreover, the Moisturizing effect entry in data set [3] is recorded as “⊚ (60 or more)”. Besides, in data set [1] (setting [5]), the change in vivo at 5 % was above 10%. Also, the Stability entry in data set [4] is “Δ”.
`CN(CC(=O)O)CC(O)CO` (stereo not shown) [Glyceryl derivative of sarcosine, N-glyaerylsarcosine]: in data set [2], the Moisture-absorption ability result is reported as “⊚ (Amount of absorbed water per 1 g of keratin powder is 0.60 g or more)”. Moreover, in data set [3], the Moisturizing effect result is “⊚ (60 or more)”. The “Moisturizing effect on skin” value in data set [1] (setting [5]) is recorded as “◯ (Conductance changing ratio is 10% more)”.
Take `O=C(O)[C@H](CO)NCC(O)CO` (stereo partly shown) [Glyceryl derivative of serine, N-glycerylserine]: the Moisture-absorption ability result in data set [2] is on record as “⊚ (Amount of absorbed water per 1 g of keratin powder is 0.60 g or more)”. For the same compound, the Moisturizing effect entry in data set [3] is “⊚ (60 or more)”. Further, the change in vivo at 5 % in data set [1] (setting [5]) is above 10%. In data set [4], the Stability entry is on record as “◯”.
On to `NCC(=O)O` [Glycine], for which the Moisture-absorption ability entry in data set [2] is “Δ (Amount of absorbed water per 1 g of keratin powder is 0.40 g or more and less than 0.50 g)”. For the same compound, in data set [3], the Moisturizing effect entry was “Δ (40 or more and less than 50)”. In addition, the “Moisturizing effect on skin” value in data set [1] (setting [5]) is “Δ”.
On to `Cl.N[C@@H](Cc1cnc[nH]1)C(=O)O` [Histidine hdrochloride], for which the Moisture-absorption ability entry in data set [2] is “Δ (Amount of absorbed water per 1 g of keratin powder is 0.40 g or more and less than 0.50 g)”. The Moisturizing effect entry in data set [3] was “Δ (40 or more and less than 50)”. Also, in data set [1] (setting [5]), the “Moisturizing effect on skin” value was “Δ”.
`CC(C)C[C@H](N)C(=O)O` [Leucine]: the change in vivo at 5 % in data set [1] (setting [5]) is below 3%. In addition, in data set [4] (5% by weight sample solution for stability evaluation), the “Formation of homogeneous solution of sample” value was “did not form homogeneous solution”. In addition, the Stability result in data set [4] was “Δ”.
For `Cl.NCCCC[C@H](N)C(=O)O` [Lysine hydrochloride], the Moisture-absorption ability result in data set [2] was “Δ (Amount of absorbed water per 1 g of keratin powder is 0.40 g or more and less than 0.50 g)”. In data set [3], the Moisturizing effect result was “Δ (40 or more and less than 50)”. In addition, the “Moisturizing effect on skin” value in data set [1] (setting [5]) is “Δ”. Besides, the Stability entry in data set [4] was “Δ”.
For `O=C(O)[C@@H]1CCCN1` [Proline], the Moisture-absorption ability result in data set [2] was “◯ (Amount of absorbed water per 1 g of keratin powder is 0.50 g or more and less than 0.60 g)”. Moreover, in data set [3], the Moisturizing effect entry is “◯ (50 or more and less than 60)”. In data set [1] (setting [5]), the “Moisturizing effect on skin” value was “Δ”.
As for `N[C@@H](CO)C(=O)O` [Serine], in data set [2], the Moisture-absorption ability entry is “Δ (Amount of absorbed water per 1 g of keratin powder is 0.40 g or more and less than 0.50 g)”. For the same compound, the Moisturizing effect entry in data set [3] was “Δ (40 or more and less than 50)”. The change in vivo at 5 % in data set [1] (setting [5]) was below 3%.
